Values of other authors as cited in article PMC9328939, “A Randomized Double‐Blind Placebo‐Controlled First‐In‐Human Phase 1 Trial of TransCon PTH in Healthy Adults” (Journal of Bone and Mineral Research, 2020).

Assays:
healthy volunteers = conditions: sCa raised comparably to a calcium clamp (10.3 mg/dL; FECa 6.0% to 7.0%) by infusion of PTHrP(1-36); cited from earlier work
Excerpt: TransCon PTH may also positively impact hypercalciuria, a major cause of morbidity in patients with HP.

PTH/PTHrP receptor = conditions: stated without data; no reference given; cited from earlier work
[1] = short-acting PTH(1-84); cited from earlier work
Excerpt: The TransCon PTH bone turnover data are similar to the published literature, which illustrate that continuous PTH administration is not anabolic. […] TransCon PTH did modestly and transiently increase the bone resorption marker, serum CTx, consistent with t ...

## PTHrP(1‐36): parathyroid hormone-related protein fragment infused in healthy volunteers in a literature study
Healthy volunteers
  FECa: did not differ from normal controls

## PTH(1‐33): metabolite of PTH(1-34) shortened by a single amino acid; part of Free PTH (SVSEIQLMHNLGKHLNSMERVEWLRKKLQDVHN; Parathyroid hormone; UniProt P01270 32-64, looked up, fragment)
PTH/PTHrP receptor
  potency at the PTH/PTHrP receptor relative to PTH(1-34): equipotency

B1: PTH(1‐84): parathyroid hormone for injection, once-daily short-acting rhPTH(1-84) (protein, UniProt P01270 32-115, looked up)
Parathyroid hormone: SVSEIQLMHNLGKHLNSMERVEWLRKKLQDVHNFVALGAPLAPRDAGSQRPRKKEDNVLVESHEKSLGEADKADVNVLTKAKSQ
modifications: Parathyroid hormone
[1]
  persistent increase in CTx: 200%
